The target of one data set is T1, HsaGST M2-2 (Homo sapiens, UniProt P28161).
T1 construct: made in house
T1 sequence (P28161 1-218): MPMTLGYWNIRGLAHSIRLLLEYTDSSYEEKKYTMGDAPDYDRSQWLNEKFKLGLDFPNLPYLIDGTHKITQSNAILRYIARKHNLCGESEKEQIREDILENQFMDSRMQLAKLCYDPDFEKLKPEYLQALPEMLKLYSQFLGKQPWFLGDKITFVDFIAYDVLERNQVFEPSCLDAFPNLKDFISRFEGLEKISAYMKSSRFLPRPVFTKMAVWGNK
The data set can be described thus: Inhibition of HsaGST M2-2 CDNB activity. In kind it is biochemical. The note with it: 1 mM GSH, 1 mM CDNB, pH 6.5, 30°C. The method, then:
(§1) EcaGST A3-3 [10], HsaGST A3-3 [12] and HsaGST M2-2 [13] were cloned, expressed and purified as described previously. Protein concentration was determined by means of the Bradford assay.
(§2) The conjugation of GSH with the electrophilic substrate CDNB was used as a biochemical assay for general activity measurements. Screening of the US Drug library for inhibition was done in triplicates in 96-well plates in a Thermo Scientific Multiskan GO spectrophotometer. The conjugation activity at 30°C was monitored at 340 nm for 1 min in 0.1 M sodium phosphate buffer at pH 6.5 and 10 μM inhibitor concentration in a final volume of 300 μL. Initial concentrations of GSH and CDNB were 1 mM.
(§3) For understanding the effects of pharmacological interventions based on GST inhibitors, it is important to know the selectivity among the numerous GSTs. […] All values were determined with CDNB, which is a common substrate for all the enzymes.

The target of data set [1] is T2, EcaGST A3-3 (Equus caballus, UniProt M9ZT87). The data set can be described thus: Inhibition of EcaGST A3-3 steroid double-bond isomerase activity with Δ^5-AD. In kind it is biochemical, Equus ferus caballus. The note with it: for Hill coefficient, Δ^5-AD inhibition: dose-response curve, substrate Δ^5-AD, mean ± SD.
The subject of a further data set is HsaGST S1-1. Details: method as in PMID 25603235. As to conditions: 1 mM GSH, 1 mM CDNB, pH 6.5, 30°C, cited from earlier work; for Inhibition (%) of HsaGST S1-1: 10 μM inhibitor; for IC50: CDNB activity.
For the next data set, the system named is HsaGST P1-1. Details: method as in PMID 23769903. The note with it: 1 mM GSH, 1 mM CDNB, pH 6.5, 30°C, cited from earlier work; for Inhibition (%) of HsaGST P1-1: 3.3 μM inhibitor.
Data set [2] concerns the target T2, EcaGST A3-3. The data set can be described thus: Inhibition of EcaGST A3-3 activity, GSH conjugation with CDNB. As to conditions: for IC50: 100 mM sodium phosphate pH 6.5, 30°C, read-out: IC50 EcaGST A3-3, substrate CDNB; for Hill coefficient, CDNB inhibition: dose-response curve, substrate CDNB, mean ± SD. The class given is biochemical, Equus ferus caballus. As for the experimental part: The final solvent concentration in the reaction system was kept at 5% (v/v) as a maximum.
as §2
Assay conditions for inhibition measurements of enzyme activity with CDNB were the following: EcaGST A3-3 15 nM, initial concentrations of GSH and CDNB 1 mM, inhibitor concentrations varying from 0.029 μM to 15 μM, in 100 mM Na2HPO4/NaH2PO4 at pH 6.5.
The reactions were followed spectrophotometrically for 1 min at 30°C using a Shimadzu UV-2501 PC spectrophotometer (Shimadzu Inc.). All experiments included triplicate measurements in each data point.
The equation for competitive inhibition fitted by non-linear regression was v=Vmax[S]/KM(1+[I]/Ki)+[S] where [S] is the substrate concentrations and [I] is the inhibitor concentration.

The target in data set [3] is T3, HsaGST A3-3 (Homo sapiens, UniProt Q16772).
T3 construct: made in house
T3 sequence (Q16772 1-222): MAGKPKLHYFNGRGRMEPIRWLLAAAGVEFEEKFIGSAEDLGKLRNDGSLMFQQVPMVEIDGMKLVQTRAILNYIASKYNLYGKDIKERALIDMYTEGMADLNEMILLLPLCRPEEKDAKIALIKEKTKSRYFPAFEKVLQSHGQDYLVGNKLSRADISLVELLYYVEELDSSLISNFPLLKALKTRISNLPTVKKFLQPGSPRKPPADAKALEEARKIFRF
The data set can be described thus: Inhibition of HsaGST A3-3 CDNB activity. The class given is biochemical. The note with it: 1 mM GSH, 1 mM CDNB, pH 6.5, 30°C; for IC50: CDNB activity. The method, then:
as §1, §2, §3

For data set [4], the target named is T3, HsaGST A3-3. Details: method as in PMID 23769903. As to conditions: CDNB activity, 1 mM GSH, 1 mM CDNB, pH 6.5, 30°C; read-out: IC50 HsaGST A3-3 (published); cited from earlier work.
Substrate in data set [5]: CC12CCC3C(CC=C4CC(=O)CCC43C)C1CCC2=O
Nature of the data set: purified protein, by the assay type. As to conditions: other: 1 mM GSH, fitted with and without anthralin; 30.0 °C.

Where [6] appears, read: 0.1 mM Δ^5-AD, 1 mM GSH, 25 mM sodium phosphate pH 8.0, 30°C.

Where two headings read alike, the source gives them in different places.

This is an account of results in publication PMC6428247, “Potent inhibitors of equine steroid isomerase EcaGST A3-3” (PLoS ONE, 2019).

On to `O=C(O)c1cc(O)c2c(c1)[C@H]([C@H]1c3cc(C(=O)O)cc(O)c3C(=O)c3c(O[C@@H]4O[C@H](CO)[C@@H](O)[C@H](O)[C@H]4O)cccc31)c1cccc(O[C@@H]3O[C@H](CO)[C@@H](O)[C@H](O)[C@H]3O)c1C2=O` [Sennoside A], for which the inhibition (usually the change of the read-out against control, counted positive when it falls) at 10 µM is below 30% at HsaGST M2-2 (10 μM inhibitor, read-out: Inhibition (%) of HsaGST M2-2 (symbol)); 100% on EcaGST A3-3 [2] (10 μM inhibitor, 1 mM GSH, 1 mM CDNB, sodium phosphate pH 6.5, 30°C, read-out: Inhibition (%) of EcaGST A3-3); 90% on HsaGST A3-3 [3] (pH 6.5, 10 μM inhibitor, read-out: Inhibition (%) of HsaGST A3-3). In addition, the IC50 (in general, the concentration that gives 50% inhibition) is 110 ± 8.2 nM on EcaGST A3-3 [1]; 39000 nM in the data set with HsaGST S1-1; 2800 ± 280 nM on EcaGST A3-3 [2] (1 mM CDNB, 1 mM GSH); 980 nM on HsaGST A3-3 [3]. The “IC50 EcaGST A3-3, substrate Δ^5-AD” value at EcaGST A3-3 [1] (setting [6]) is “submicromolar range”. For the same molecule, at EcaGST A3-3 [1], the “Hill coefficient, Δ^5-AD inhibition” value came out at 2.1±0.29. In addition, the “Times more potent with Δ^5-AD as substrate than with CDNB” value at EcaGST A3-3 [1] (ratio of IC50 values CDNB vs Δ^5-AD, EcaGST A3-3) is recorded as “approximately 25 times”. Besides, the “Inhibition (%) of HsaGST S1-1” value in the data set with HsaGST S1-1 is 30%. Moreover, in the data set on HsaGST P1-1, the “Inhibition (%) of HsaGST P1-1” value is recorded as below 4%. The “Hill coefficient, CDNB inhibition” value on EcaGST A3-3 [2] came to 2.2±0.41.
With `O=C(OCC1OC(OC(=O)c2cc(O)c(O)c(OC(=O)c3cc(O)c(O)c(O)c3)c2)C(OC(=O)c2cc(O)c(O)c(OC(=O)c3cc(O)c(O)c(O)c3)c2)C(OC(=O)c2cc(O)c(O)c(OC(=O)c3cc(O)c(O)c(O)c3)c2)C1OC(=O)c1cc(O)c(O)c(OC(=O)c2cc(O)c(O)c(O)c2)c1)c1cc(O)c(O)c(OC(=O)c2cc(O)c(O)c(O)c2)c1` (stereo not shown) [Tannic acid], the IC50 on HsaGST M2-2 (CDNB activity, read-out: IC50 HsaGST M2-2) is 1200 nM; at EcaGST A3-3 [1] (read-out: IC50 EcaGST A3-3, substrate Δ^5-AD, 0.1 mM Δ^5-AD, 1 mM GSH, 25 mM sodium phosphate pH 8.0, 30°C), 220 ± 34 nM; in the data set with HsaGST S1-1, 350 nM; at EcaGST A3-3 [2] (1 mM CDNB, 1 mM GSH) it was 330 ± 18 nM; against HsaGST A3-3 [3], 210 nM. Also, at EcaGST A3-3 [1] (setting [6]), the “IC50 EcaGST A3-3, substrate Δ^5-AD” value is given as “submicromolar range”. Moreover, the “Hill coefficient, Δ^5-AD inhibition” value at EcaGST A3-3 [1] is listed as 2.1±0.63. In addition, the “Inhibition (%) of HsaGST S1-1” value in the data set with HsaGST S1-1 is recorded as 100%. Further, in the data set with HsaGST P1-1, the “Inhibition (%) of HsaGST P1-1” value is below 4%. The “Hill coefficient, CDNB inhibition” value on EcaGST A3-3 [2] is listed as 2.2±0.23.
As to Chlorophyllide Cu-complex Na salt, on HsaGST M2-2 (10 μM inhibitor), the “Inhibition (%) of HsaGST M2-2” value turned out to be 100%. Besides, at EcaGST A3-3 [1] (setting [6]), the “IC50 EcaGST A3-3, substrate Δ^5-AD” value is listed as “Anomalous curve”. Also, in the data set on HsaGST S1-1, the “Inhibition (%) of HsaGST S1-1” value is on record as 100%. Further, the IC50 with HsaGST S1-1 is 1700 nM; in the data set with HsaGST P1-1 (CDNB activity) it was 2300 nM; on EcaGST A3-3 [2] (1 mM CDNB, 1 mM GSH), 2100 ± 270 nM; on HsaGST A3-3 [4] it was 330 nM. In the data set on HsaGST P1-1, the “Inhibition (%) of HsaGST P1-1” value was 51%. Further, the “Inhibition (%) of EcaGST A3-3” value at EcaGST A3-3 [2] (10 μM inhibitor, 1 mM GSH, 1 mM CDNB, sodium phosphate pH 6.5, 30°C) came to 98 ±2.2%. The “Inhibition (%) of HsaGST A3-3” value on HsaGST A3-3 [3] (10 μM inhibitor) is 84%.

B1: EcaGST A3-3 (Equus caballus) (protein)
chain: MAVKPMLHYFNGRGRMEPIRWLLAAAGVEFEETFIDTPEDFEKLKNDGSLMFQQVPMVEIDGMKLVQSRAILNYVAAKHNLYGKDIKERALIDMYIEGVADLNEMILLLPITPPAEKDAKIMLIKDRTTNRYLPAFEKVLKSHGEDYLVGNRLSRADIHLVELLYLVEELDPSLLTNFPLLKALKARISNLPTVKKFLQPGGARKPPGDEKSVEKSRKIFKF
Regarding B1, in data set [5], the Km (as a rule, the concentration of substrate that gives half-maximal velocity) worked out at 10.8 ± 0.46 µM.
